# Legend:
# Type in all cases: functional
# LOX IMVI = assay: Cytotoxicity against human LOXIMVI cells assessed as cell growth at 10 uM after 48 hrs by SRB assay relative to control; details: read-out: Activity
# U-251 = assay: Cytotoxicity against human U251 cells assessed as cell growth at 10 uM after 48 hrs by SRB assay relative to control; details: U-251, 48 h, read-out: Activity
# SF-539 = assay: Cytotoxicity against human SF539 cells assessed as cell growth at 10 uM after 48 hrs by SRB assay relative to control; details: SF-539, 48 h, read-out: Activity
# RXF 393 = assay: Cytotoxicity against human RXF393 cells assessed as cell growth at 10 uM after 48 hrs by SRB assay relative to control; details: RXF 393, 48 h, read-out: Activity
# CAKI-1 = assay: Cytotoxicity against human Caki1 cells assessed as cell growth at 10 uM after 48 hrs by SRB assay relative to control; details: CAKI-1, 48 h, read-out: Activity
# SF-268 = assay: Cytotoxicity against human SF268 cells assessed as cell growth at 10 uM after 48 hrs by SRB assay relative to control; details: SF-268, 48 h, read-out: Activity
# SF-295 = assay: Cytotoxicity against human SF295 cells assessed as cell growth at 10 uM after 48 hrs by SRB assay relative to control; details: SF-295, 48 h, read-out: Activity
# Malme-3M = assay: Cytotoxicity against human MALME-3M cells assessed as cell growth at 10 uM after 48 hrs by SRB assay relative to control; details: read-out: Activity
# RPMI-8226 = assay: Cytotoxicity against human RPMI8226 cells assessed as cell growth at 10 uM after 48 hrs by SRB assay relative to control; details: RPMI-8226, 48 h, read-out: Activity
# K562 = assay: Cytotoxicity against human K562 cells assessed as cell growth at 10 uM after 48 hrs by SRB assay relative to control; details: K562, 48 h, read-out: Activity
# OVCAR-8 = assay: Cytotoxicity against human OVCAR8 cells assessed as cell growth at 10 uM after 48 hrs by SRB assay relative to control; details: OVCAR-8, 48 h, read-out: Activity
# OVCAR-3 = assay: Cytotoxicity against human OVCAR3 cells assessed as cell growth at 10 uM after 48 hrs by SRB assay relative to control; details: OVCAR-3, 48 h, read-out: Activity
# HOP-62 = assay: Cytotoxicity against human HOP62 cells assessed as cell growth at 10 uM after 48 hrs by SRB assay relative to control; details: HOP-62, 48 h, read-out: Activity
# SW-620 = assay: Cytotoxicity against human SW620 cells assessed as cell growth at 10 uM after 48 hrs by SRB assay relative to control; details: SW-620, 48 h, read-out: Activity
# HCC 2998 = assay: Cytotoxicity against human HCC2998 cells assessed as cell growth at 10 uM after 48 hrs by SRB assay relative to control; details: HCC 2998, 48 h, read-out: Activity
# SNB-19 = assay: Cytotoxicity against human SNB19 cells assessed as cell growth at 10 uM after 48 hrs by SRB assay relative to control; details: SNB-19, 48 h, read-out: Activity
# HCT-116 = assay: Cytotoxicity against human HCT116 cells assessed as cell growth at 10 uM after 48 hrs by SRB assay relative to control; details: HCT-116, 48 h, read-out: Activity
# SK-OV-3 = assay: Cytotoxicity against human SKOV3 cells assessed as cell growth at 10 uM after 48 hrs by SRB assay relative to control; details: SK-OV-3, 48 h, read-out: Activity
# M14 = assay: Cytotoxicity against human M14 cells assessed as cell growth at 10 uM after 48 hrs by SRB assay relative to control; details: M14, 48 h, read-out: Activity
# SK-MEL-28 = assay: Cytotoxicity against human SK-MEL-28 cells assessed as cell growth at 10 uM after 48 hrs by SRB assay relative to control; details: SK-MEL-28, 48 h, read-out: Activity
# [1] = Cytotoxicity against human Hs 578T cells assessed as cell growth at 10 uM after 48 hrs by SRB assay relative to control; details: read-out: Activity
# PC-3 = assay: Cytotoxicity against human PC3 cells assessed as cell growth at 10 uM after 48 hrs by SRB assay relative to control; details: PC-3, 48 h, read-out: Activity
# ACHN = assay: Cytotoxicity against human ACHN cells assessed as cell growth at 10 uM after 48 hrs by SRB assay relative to control; details: read-out: Activity
# HCT-15 = assay: Cytotoxicity against human HCT15 cells assessed as cell growth at 10 uM after 48 hrs by SRB assay relative to control; details: HCT-15, 48 h, read-out: Activity
# SK-MEL-2 = assay: Cytotoxicity against human SK-MEL-2 cells assessed as cell growth at 10 uM after 48 hrs by SRB assay relative to control; details: SK-MEL-2, 48 h, read-out: Activity
# MDA-MB-435 = assay: Cytotoxicity against human MDA-MB-435 cells assessed cell growth at 10 uM after 48 hrs by SRB assay relative to control
# UACC-257 = assay: Cytotoxicity against human UACC257 cells assessed as cell growth at 10 uM after 48 hrs by SRB assay relative to control; details: UACC-257, 48 h, read-out: Activity
# T47D = assay: Cytotoxicity against human T47D cells assessed as cell growth at 10 uM after 48 hrs by SRB assay relative to control; details: read-out: Activity
# EKVX = assay: Cytotoxicity against human EKVX cells assessed as cell growth at 10 uM after 48 hrs by SRB assay relative to control; details: read-out: Activity
# MDA-MB-468 = assay: Cytotoxicity against human MDA-MB-468 cells assessed as cell growth at 10 uM after 48 hrs by SRB assay relative to control; details: MDA-MB-468, 48 h, read-out: Activity
# DU-145 = assay: Cytotoxicity against human DU145 cells assessed as cell growth at 10 uM after 48 hrs by SRB assay relative to control; details: DU-145, 48 h, read-out: Activity
# UO-31 = assay: Cytotoxicity against human UO31 cells assessed as cell growth at 10 uM after 48 hrs by SRB assay relative to control; details: UO-31, 48 h, read-out: Activity
# BT-549 = assay: Cytotoxicity against human BT549 cells assessed as cell growth at 10 uM after 48 hrs by SRB assay relative to control; details: BT-549, 48 h, read-out: Activity
# IGROV-1 = assay: Cytotoxicity against human IGROV1 cells assessed as cell growth at 10 uM after 48 hrs by SRB assay relative to control; details: IGROV-1, 48 h, read-out: Activity
# NCI/ADR-RES = assay: Cytotoxicity against human NCI/ADR-RES cells assessed as cell growth at 10 uM after 48 hrs by SRB assay relative to control; details: read-out: Activity
# MCF7 = assay: Cytotoxicity against human MCF7 cells assessed as cell growth at 10 uM after 48 hrs by SRB assay relative to control; details: MCF7, 48 h, read-out: Activity
compound,measurement,setting,value
Cn1c2ccccc2c2c3nc(N)[nH]c(=O)c3c3c4ccccc4n(C)c3c21,growth at 10 µM,LOX IMVI,60.9%
same,growth at 10 µM,U-251,76.1%
same,growth at 10 µM,SF-539,99.1%
same,growth at 10 µM,RXF 393,94%
same,growth at 10 µM,CAKI-1,-14.9%
same,growth at 10 µM,SF-268,73.5%
same,growth at 10 µM,SF-295,86.6%
same,growth at 10 µM,Malme-3M,36.2%
same,growth at 10 µM,RPMI-8226,61.4%
same,growth at 10 µM,K562,44.4%
same,growth at 10 µM,OVCAR-8,43.1%
same,growth at 10 µM,OVCAR-3,82.9%
same,growth at 10 µM,HOP-62,95.2%
same,growth at 10 µM,SW-620,31.6%
same,growth at 10 µM,HCC 2998,60.9%
same,growth at 10 µM,SNB-19,122%
same,growth at 10 µM,HCT-116,34%
same,growth at 10 µM,SK-OV-3,34.9%
same,growth at 10 µM,M14,34.9%
same,growth at 10 µM,SK-MEL-28,91%
same,growth at 10 µM,[1],113%
same,growth at 10 µM,PC-3,59.1%
same,growth at 10 µM,ACHN,29.5%
same,growth at 10 µM,HCT-15,43.7%
same,growth at 10 µM,SK-MEL-2,32%
same,Activity,MDA-MB-435,24.36%
same,growth at 10 µM,UACC-257,79.7%
same,growth at 10 µM,T47D,75%
same,growth at 10 µM,EKVX,73.5%
same,growth at 10 µM,MDA-MB-468,80.3%
same,growth at 10 µM,DU-145,44.9%
same,growth at 10 µM,UO-31,7.16%
same,growth at 10 µM,BT-549,76.6%
same,growth at 10 µM,IGROV-1,65.8%
same,growth at 10 µM,NCI/ADR-RES,48.7%
same,growth at 10 µM,MCF7,25%
Cn1cc(-c2nc(N)[nH]c(=O)c2-c2cn(C)c3ccccc23)c2ccccc21,growth at 10 µM,LOX IMVI,118%
same,growth at 10 µM,U-251,100%
same,growth at 10 µM,SF-539,141%
same,growth at 10 µM,RXF 393,131%
same,growth at 10 µM,CAKI-1,94.6%
same,growth at 10 µM,SF-268,109%
same,growth at 10 µM,SF-295,90.7%
same,growth at 10 µM,Malme-3M,112%
same,growth at 10 µM,RPMI-8226,111%
same,growth at 10 µM,K562,111%
same,growth at 10 µM,OVCAR-8,97.5%
same,growth at 10 µM,OVCAR-3,109%
same,growth at 10 µM,HOP-62,85.3%
same,growth at 10 µM,SW-620,94%
same,growth at 10 µM,HCC 2998,120%
same,growth at 10 µM,SNB-19,111%
same,growth at 10 µM,HCT-116,99%
same,growth at 10 µM,SK-OV-3,95.8%
same,growth at 10 µM,M14,97.6%
same,growth at 10 µM,SK-MEL-28,118%
same,growth at 10 µM,[1],103%
same,growth at 10 µM,PC-3,89.7%
same,growth at 10 µM,ACHN,98.5%
same,growth at 10 µM,HCT-15,117%
same,growth at 10 µM,SK-MEL-2,102%
same,Activity,MDA-MB-435,109.77%
same,growth at 10 µM,UACC-257,95.6%
same,growth at 10 µM,T47D,93.8%
same,growth at 10 µM,EKVX,105%
same,growth at 10 µM,MDA-MB-468,106%
same,growth at 10 µM,DU-145,122%
same,growth at 10 µM,UO-31,64.6%
same,growth at 10 µM,BT-549,102%
same,growth at 10 µM,IGROV-1,68.9%
same,growth at 10 µM,NCI/ADR-RES,108%
same,growth at 10 µM,MCF7,77.6%
Cn1c2ccccc2c2c3c(=O)[nH]c(N)nc3c3c4cccnc4n(C)c3c21,growth at 10 µM,LOX IMVI,66%
same,growth at 10 µM,U-251,81.2%
same,growth at 10 µM,SF-539,111%
same,growth at 10 µM,RXF 393,87.4%
same,growth at 10 µM,CAKI-1,60.1%
same,growth at 10 µM,SF-268,95.6%
same,growth at 10 µM,SF-295,94.1%
same,growth at 10 µM,Malme-3M,119%
same,growth at 10 µM,RPMI-8226,64.4%
same,growth at 10 µM,K562,74%
same,growth at 10 µM,OVCAR-8,60.1%
same,growth at 10 µM,OVCAR-3,98.2%
same,growth at 10 µM,HOP-62,84.1%
same,growth at 10 µM,SW-620,72%
same,growth at 10 µM,HCC 2998,104%
same,growth at 10 µM,SNB-19,103%
same,growth at 10 µM,HCT-116,63%
same,growth at 10 µM,SK-OV-3,87.2%
same,growth at 10 µM,M14,68.8%
same,growth at 10 µM,SK-MEL-28,120%
same,growth at 10 µM,[1],128%
same,growth at 10 µM,PC-3,71%
same,growth at 10 µM,ACHN,54.1%
same,growth at 10 µM,HCT-15,67.4%
same,growth at 10 µM,SK-MEL-2,68.5%
same,Activity,MDA-MB-435,87.02%
same,growth at 10 µM,UACC-257,129%
same,growth at 10 µM,T47D,48.7%
same,growth at 10 µM,EKVX,82.2%
same,growth at 10 µM,MDA-MB-468,75.1%
same,growth at 10 µM,DU-145,83.2%
same,growth at 10 µM,UO-31,39.4%
same,growth at 10 µM,BT-549,66%
same,growth at 10 µM,IGROV-1,94.2%
same,growth at 10 µM,NCI/ADR-RES,80.2%
same,growth at 10 µM,MCF7,45.2%

# — ChEMBL document CHEMBL2086254, “Synthesis and identification of novel indolo[2,3-a]pyrimido[5,4-c]carbazoles as a new class of anti-cancer agents” (Eur J Med Chem, 2012)
